Results: patent US20250276962A1, “CONTRACEPTIVE COMPOUNDS AND METHODS” (Regents of the University of Minnesota, priority 2021, published 2025)
Entries after “also recorded” stand apart in the source; their conditions may differ. Read-outs that look alike come from different tables or passages of the source.

Columns and labels:
[1] = molecular target: cannabinoid receptor 1 (CB1) (Homo sapiens, UniProt P21554); assay: Off-target screening, CB1; type: cell-based
[2] = molecular target: acetylcholinesterase (AChE) (Homo sapiens, UniProt P22303); assay: Off-target screening, AChE; type: biochemical
acetylcholinesterase (AChE), sequence (P22303 32-614, species assumed): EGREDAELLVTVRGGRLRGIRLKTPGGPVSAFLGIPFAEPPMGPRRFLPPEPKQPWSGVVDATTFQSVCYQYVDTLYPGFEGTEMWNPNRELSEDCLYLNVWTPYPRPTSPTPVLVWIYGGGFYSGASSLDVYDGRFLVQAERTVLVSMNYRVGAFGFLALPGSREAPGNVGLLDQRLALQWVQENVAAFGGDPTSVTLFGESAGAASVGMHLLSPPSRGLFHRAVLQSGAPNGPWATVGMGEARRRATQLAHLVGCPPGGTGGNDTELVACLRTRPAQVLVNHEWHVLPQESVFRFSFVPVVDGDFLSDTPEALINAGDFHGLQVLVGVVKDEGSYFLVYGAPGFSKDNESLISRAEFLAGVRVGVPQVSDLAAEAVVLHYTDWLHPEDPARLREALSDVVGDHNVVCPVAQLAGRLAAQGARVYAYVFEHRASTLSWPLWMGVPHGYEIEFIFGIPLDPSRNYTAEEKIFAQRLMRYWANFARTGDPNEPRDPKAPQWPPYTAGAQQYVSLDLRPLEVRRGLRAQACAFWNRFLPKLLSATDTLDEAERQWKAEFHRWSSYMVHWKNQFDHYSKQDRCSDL

male Beagle dogs [3] = assay: Testis histopathology after 14-day dosing, dog; type: in vivo; conditions: daily doses for 14 days (25 mg/kg/day in FIG. 11)
Protocol: 2 male Beagle dogs and 5 male SD rats were dosed with 25 mg/kg/day for 14 days. On Day 15, animals were euthanized to harvest organs for histopathology. Shown are representative images. See Example 19.

male Beagle dogs [4] = test system: male Beagle dogs
[5] = Stability in monkey liver microsomes; type: in vitro ADME; conditions: read-out: Half-life (T1/2) Liver microsomes (Phase I metabolism) (converted)
in vivo [6] = conditions: male, Sprague-Dawley, rat, oral
[7] = molecular target: Kir2.1 (potassium channel of excitable cells) (Homo sapiens, UniProt P63252); assay: Off-target screening, Kir2.1; type: cell-based
Kir2.1 (potassium channel of excitable cells), sequence (P63252 whole entry): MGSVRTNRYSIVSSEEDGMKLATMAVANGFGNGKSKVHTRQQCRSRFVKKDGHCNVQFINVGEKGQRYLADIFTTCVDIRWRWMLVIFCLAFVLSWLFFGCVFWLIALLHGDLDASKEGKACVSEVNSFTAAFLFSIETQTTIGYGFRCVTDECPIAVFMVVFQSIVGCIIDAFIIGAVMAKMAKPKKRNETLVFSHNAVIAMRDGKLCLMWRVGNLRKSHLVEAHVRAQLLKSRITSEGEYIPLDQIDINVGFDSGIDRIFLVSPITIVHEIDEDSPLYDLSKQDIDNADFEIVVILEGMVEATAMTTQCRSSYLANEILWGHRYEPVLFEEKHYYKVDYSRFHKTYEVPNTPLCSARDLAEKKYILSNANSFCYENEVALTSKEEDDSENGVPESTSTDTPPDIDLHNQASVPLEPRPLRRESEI

cyclooxygenase 2 (COX2) = cyclooxygenase 2 (COX2) (Homo sapiens, UniProt P35354); assay: Off-target screening, COX2; type: biochemical
cyclooxygenase 2 (COX2), sequence (P35354 18-604, species assumed): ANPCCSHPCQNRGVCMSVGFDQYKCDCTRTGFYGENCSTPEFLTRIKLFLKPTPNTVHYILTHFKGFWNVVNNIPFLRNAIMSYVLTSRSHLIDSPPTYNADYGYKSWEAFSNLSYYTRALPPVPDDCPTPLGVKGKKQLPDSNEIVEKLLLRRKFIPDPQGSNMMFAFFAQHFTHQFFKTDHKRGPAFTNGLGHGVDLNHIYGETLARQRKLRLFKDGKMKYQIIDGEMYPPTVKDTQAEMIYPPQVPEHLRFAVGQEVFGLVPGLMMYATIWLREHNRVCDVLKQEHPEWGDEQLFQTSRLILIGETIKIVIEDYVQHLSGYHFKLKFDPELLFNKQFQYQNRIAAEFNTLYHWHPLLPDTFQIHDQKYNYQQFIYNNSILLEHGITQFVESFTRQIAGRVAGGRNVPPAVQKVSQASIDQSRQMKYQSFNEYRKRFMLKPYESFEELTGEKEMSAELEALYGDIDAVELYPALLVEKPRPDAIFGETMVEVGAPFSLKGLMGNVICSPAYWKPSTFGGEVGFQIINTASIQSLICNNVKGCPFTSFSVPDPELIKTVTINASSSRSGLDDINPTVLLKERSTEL

male CD-1 mice = assay: Mouse studies with epididymal sperm count as readout; conditions: 10 mg/kg/day for 4 weeks
[8] = Stability in rat hepatocytes; type: in vitro ADME; conditions: read-out: Half-life (T1/2) Hepatocytes (Phase I and Phase II metabolism) (converted)
[9] = Single dose toxicity, dog; conditions: Beagle, in vivo, Maximum tolerated dose (MTD), Beagle dogs, highest dose level tested
in vivo [10] = conditions: male, Beagle, dog, oral
[11] = Single dose toxicity, rat; conditions: Sprague-Dawley, in vivo, Maximum tolerated dose (MTD), Sprague-Dawley rats, highest dose level tested
[12] = Repeat dose PK (14 days), rat; type: in vivo; conditions: male, Sprague-Dawley, plasma, oral, Day 14, read-out: AUC0-48
in vitro [13] = conditions: human
[14] = Solubility in saline and 50% carbitol; type: physicochemical
[15] = Single dose PK, cynomolgus macaque; type: in vivo
Protocol: (§1) NHP studies: Three young adult male marmosets received a single 5 mg/kg dose of the compound of Example land the compound of 3 sexually mature male cynomolgus macaques received a single dose of 0.5, 1, 5 and 10 mg/kg.

Single dose PK, marmoset = type: in vivo; conditions: male, monkey, plasma, Marmoset 5 mg/kg
Protocol: as §1

[16] = Stability in rabbit liver microsomes; type: in vitro ADME; conditions: read-out: Half-life (T1/2) Liver microsomes (Phase I metabolism) (converted)
in vitro [17] = conditions: human hepatocytes
in vitro [18] = conditions: mouse hepatocytes
[19] = Single dose toxicity, mouse; conditions: male, CD-1, mouse, in vivo, Maximum tolerated dose (MTD), male CD-1 mice, highest dose level tested
[20] = molecular target: human Ether-á-go-go related gene (hERG) channel (Homo sapiens, UniProt Q12809); assay: cell-based
human Ether-á-go-go related gene (hERG) channel, sequence (Q12809 whole entry): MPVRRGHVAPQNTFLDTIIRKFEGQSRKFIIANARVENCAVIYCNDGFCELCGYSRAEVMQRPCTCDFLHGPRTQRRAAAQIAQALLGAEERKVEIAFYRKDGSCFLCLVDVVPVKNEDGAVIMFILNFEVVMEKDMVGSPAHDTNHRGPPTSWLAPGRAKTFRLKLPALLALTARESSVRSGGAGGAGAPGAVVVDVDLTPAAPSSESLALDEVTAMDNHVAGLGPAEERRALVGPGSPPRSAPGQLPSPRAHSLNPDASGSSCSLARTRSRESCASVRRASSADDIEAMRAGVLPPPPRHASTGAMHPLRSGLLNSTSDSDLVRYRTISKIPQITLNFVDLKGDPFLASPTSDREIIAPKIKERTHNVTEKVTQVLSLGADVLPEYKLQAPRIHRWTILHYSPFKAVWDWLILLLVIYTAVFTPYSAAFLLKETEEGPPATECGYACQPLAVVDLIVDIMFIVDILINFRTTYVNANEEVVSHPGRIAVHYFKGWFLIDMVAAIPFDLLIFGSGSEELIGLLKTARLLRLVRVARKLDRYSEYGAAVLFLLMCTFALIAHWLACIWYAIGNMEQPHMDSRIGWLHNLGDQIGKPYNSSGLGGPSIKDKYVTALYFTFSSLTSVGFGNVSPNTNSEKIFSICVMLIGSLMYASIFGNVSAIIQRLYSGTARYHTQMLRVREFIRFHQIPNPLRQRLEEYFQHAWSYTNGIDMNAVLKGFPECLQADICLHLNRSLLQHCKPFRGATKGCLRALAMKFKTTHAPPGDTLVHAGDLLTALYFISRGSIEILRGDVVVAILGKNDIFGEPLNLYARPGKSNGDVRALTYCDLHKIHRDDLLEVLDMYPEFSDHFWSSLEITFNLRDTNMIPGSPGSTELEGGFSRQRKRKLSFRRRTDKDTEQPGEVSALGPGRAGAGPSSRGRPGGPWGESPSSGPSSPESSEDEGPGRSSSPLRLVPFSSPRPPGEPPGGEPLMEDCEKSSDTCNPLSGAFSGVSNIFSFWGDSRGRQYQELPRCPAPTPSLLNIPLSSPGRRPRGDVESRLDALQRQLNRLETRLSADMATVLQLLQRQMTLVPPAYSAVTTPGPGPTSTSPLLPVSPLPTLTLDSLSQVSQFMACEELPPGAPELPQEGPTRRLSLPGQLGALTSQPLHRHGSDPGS
Protocol: (§2) The potential inhibitory effect on human Ether-á-go-go related gene (hERG) channel was evaluated using a manual patch-clamp system. A HEK293 cell line stably transfected with hERG gene was employed.

hERG = hERG (Homo sapiens, UniProt Q12809); assay: in vitro; conditions: human
hERG, sequence (Q12809 whole entry): as above
Protocol: as §2

human liver fibroblast = type: cell-based
Excerpt: The results were negative.

[21] = Stability in dog hepatocytes; type: in vitro ADME; conditions: read-out: Half-life (T1/2) Hepatocytes (Phase I and Phase II metabolism)

cannabinoid receptor 1 (CB1), sequence (P21554 whole entry, species assumed): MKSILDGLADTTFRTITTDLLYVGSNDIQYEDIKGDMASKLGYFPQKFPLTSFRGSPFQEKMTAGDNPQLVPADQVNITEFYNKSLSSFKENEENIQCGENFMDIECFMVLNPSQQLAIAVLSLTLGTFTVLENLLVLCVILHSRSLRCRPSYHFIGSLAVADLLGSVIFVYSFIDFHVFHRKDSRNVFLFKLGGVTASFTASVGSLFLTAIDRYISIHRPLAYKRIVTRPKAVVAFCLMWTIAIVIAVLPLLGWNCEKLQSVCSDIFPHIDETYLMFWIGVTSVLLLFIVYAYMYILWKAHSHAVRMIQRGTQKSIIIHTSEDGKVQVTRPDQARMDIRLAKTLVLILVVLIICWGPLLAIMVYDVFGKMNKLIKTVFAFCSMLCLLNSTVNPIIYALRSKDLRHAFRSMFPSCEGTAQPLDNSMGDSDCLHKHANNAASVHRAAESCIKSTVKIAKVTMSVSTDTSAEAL

Structure (SMILES): Cc1ccc(C2=CC(C)(C)Oc3ccc(-c4ccc(-c5ccc(C(=O)[O-])cc5)[nH]4)cc32)cc1.[Na+] [Example 1, Sodium 4-(5-(2,2-dimethyl-4-(p-tolyl)-2H-chromen-6-yl)-1H-pyrrol-2-yl)benzoate]
- IC50 [1]: 1.8 µM
- inhibition at 10 µM ([1]; 10 μM): 90.5%
- IC50 [2]: > 30 µM
- inhibition at 10 µM ([2]; 10 μM): 10.2%
- Testis histopathology (male Beagle dogs [3]): degeneration of the germinal epithelium; also recorded: visible in all evaluated tubuli seminiferi contorti; also recorded: impairs the germinal epithelium
- Tolerability (male Beagle dogs [4]; dog, in vivo, 50 mg/kg/day): not tolerated
- Tolerability (male Beagle dogs [4]; dog, in vivo, 100 mg/kg/day): one dog did not show any signs of toxicity
- Tolerability (male Beagle dogs [4]; dog, in vivo, po, 25 mg/kg/day): tolerated well
- Tolerated dose on repeated dosing for 14 days (male Beagle dogs [4]; dogs): 25 mg/kg
- Tolerability (male Beagle dogs [4]; male, Beagle, dog, in vivo, 100 mg/kg/day, 14 days): The other dog lost weight as of Day 12 until termination
- Safety margin (male Beagle dogs [4]; male, Beagle, dog, in vivo, 14 days): at least 10 ×
- half-life [5]: 23.1 h
- MTD at 2 weeks (in vivo [6]): 50 mg/kg
- IC50 [7]: > 10 µM
- inhibition at 10 µM ([7]; read-out: Inhibition of Kir2.1): 13.2%
- IC50 (cyclooxygenase 2 (COX2)): 8.51 µM
- inhibition at 10 µM (cyclooxygenase 2 (COX2); read-out: Inhibition of COX2): 61.8%
- Effect on sperm counts and recovery (male CD-1 mice; 2 weeks recovery, 10 mg/kg/day): Sperm counts started to increase; also recorded: reversibly reduces sperm counts
- Epididymal sperm counts (male CD-1 mice; 24 h after last dose): 0.51±0.27 ×10^7
- Reduction of epididymal sperm counts (male CD-1 mice; 24 h after last dose): 90%
- HepG2 cytotoxicity assay result (HepG2): negative
- HepG2 cytotoxicity assay result (HepG2; human): The compound of Example 1 showed no cytopathic effects in HepG2 and human
- Safety margin (male Sprague-Dawley rats; male, Sprague-Dawley, rat, in vivo, 14 days): at least 10 ×
- Tolerability after dose reduction to 75 mg/kg (male Sprague-Dawley rats; rat, in vivo): overall health and activity improved, they gained weight, and had normal CBC and clinical chemistry
- Tolerability (male Sprague-Dawley rats; rat, in vivo, 250 mg/kg/day): not tolerated
- Tolerability (male Sprague-Dawley rats; rat, in vivo, po, 25 mg/kg/day): tolerated well
- Tolerability (male Sprague-Dawley rats; rat, in vivo, po, 50 mg/kg/day): tolerated well
- Tolerated dose on repeated dosing for 14 days (male Sprague-Dawley rats; rats): 50 to 75 mg/kg
- half-life [8]: 7.9 h
- MTD [9]: > 500 mg/kg
- MTD at 2 weeks (in vivo [10]): 25 mg/kg
- MTD [11]: 750 mg/kg
- AUC(0-t) ([12]; Rat 25 mg/kg/day): 78800 ng·h/mL
- AUC(0-t) ([12]; Rat 50 mg/kg/day): 91100 ng·h/mL
- CLint scaled (in vitro [13]; microsomes): 3.05 mL/min/kg
- half-life (in vitro [13]; pooled liver microsomes): 9.5 h
- solubility ([14]; 50% carbitol [2-(2-ethoxyethoxy)ethanol], aqueous with cosolvent or surfactant or cyclodextrin, in 50% carbitol [2-(2-ethoxyethoxy)ethanol, read-out: Solubility): > 100 mg/mL
- solubility ([14]; saline, saline or isotonic, in saline, read-out: Solubility): ≤ 100 mg/mL
- solubility ([14]; saline, saline or isotonic, saline, read-out: Solubility (saline)): 2 mg/mL
- AUC(0-inf) ([15]; Cyno 1 mg/kg): 33,394 h * ng * mL^−1
- AUC(0-inf) ([15]; Cyno 5 mg/kg): 175,202 h * ng * mL^−1
- AUC(0-inf) ([15]; Cyno 10 mg/kg): 293,423 h * ng * mL^−1
- AUC(0-inf) ([15]; male, cynomolgus monkey, plasma, Cyno 0.5 mg/kg, read-out: AUC0-inf): 23400 ng·h/mL
- AUC(0-inf) (Single dose PK, marmoset): 6920 ng·h/mL
- half-life [16]: 19.6 h
- CLint scaled (in vitro [17]): 6.75 mL/min/kg
- CLint scaled (in vitro [18]): 56.5 mL/min/kg
- MTD [19]: > 1000 mg/kg
- Half-life (T1/2) Hepatocytes (Phase I and Phase II metabolism) (mouse): 4.8 h
- In vitro Clint (μL/min/10^6 cells) (mouse hepatocytes): 4.79 μL/min/10^6 cells
- In vitro T1/2 (mouse hepatocytes): 4.826 h
- IC50 [20]: > 30 µM
- hERG inhibitor ranking ([20]; human): The compound of Example lis not considered an hERG inhibitor. The IC50 in hERG-
- IC50 ([20]; read-out: hERG IC50, hERG-transfected HEK293 cells): > 30 µM
- IC50 ([20]; read-out: hERG IC50, hERG-transfected HEK293 cells, patch clamp): > 30 µM
- inhibition at 3.33 µM (hERG; % of hERG inhibition Cell 1, 3.33 μM): 6.99%
- inhibition at 10 µM (hERG; % of hERG inhibition Cell 1, 10.00 μM): 19.5%
- inhibition at 30 µM (hERG; % of hERG inhibition Cell 1, 30.00 μM): 35.9%
- inhibition at 3.33 µM (hERG; % of hERG inhibition Cell 2, 3.33 μM): 16.4%
- inhibition at 10 µM (hERG; % of hERG inhibition Cell 2, 10.00 μM): 20.2%
- inhibition at 30 µM (hERG; % of hERG inhibition Cell 2, 30.00 μM): 43.2%
- inhibition at 3.33 µM (hERG; Average % of hERG inhibition, 3.33 μM): 11.7%
- inhibition at 10 µM (hERG; Average % of hERG inhibition, 10.00 μM): 19.9%
- Human liver (lung) fibroblast assay result (human liver fibroblast): negative
- Human liver (lung) fibroblast assay result (human liver fibroblast; human): The compound of Example 1 showed no cytopathic effects in HepG2 and human
- half-life [21]: > 10 h
